Tests used:
HIF-1α = format: cell-based
M14 melanoma cells = test: Cell viability (CCK8 assay) in M14 melanoma cells; format: cell-based; conditions: Homo sapiens, confluent M14 cells, 48 h incubation
Method: M14 melanoma cells were seeded at 50,000 cells per well of 96-well plate in 100 μl of Dulbecco's […] (DMEM) supplemented with 10% fetal bovine serum. Cells were cultured at 37° C. under 5% CO2-95% air. After 16 hours of incubation, the test compound was added to the cell culture. The compound was first diluted in 100% dimethyl sulfoxide (DMSO) at 400-fold of the final concentrations actually used in the assay. The DMSO solution was next diluted 20 fold with the culture medium, and then finally added to the assay wells at another 20-fold dilution. Assay medium included the test compound with concentrations as indicated with 0.25% DMSO. Cell viability was measured with a CCK8 assay (as described in the Technical Manual for Cell Counting Kit-8, Product #CK04-11, CK04-13 and CK04-20, Dojindo Molecular Technologies, Inc. MD; Tantular, I. S. et al. Tropical Medicine and International Health, 8(6), 569-574, 2003) in the last 15 minutes after a 48 h incubation with the test compound. Each bar of the figure expresses average percent inhibition against vehicle (0.25% DMSO) control (n=4). Error bars indicate standard deviation.

Caki-1 cells = test: Cell viability by CellTiter Glo ATP assay at 24 h, Caki-1 cells (FIG. 6b); format: cell-based; conditions: HIF-1α-low Caki-1 cells, 2,500 cells/well
Method: (§1) To further investigate a correlation between HIF-1α and elesclomol potency, lines within the same cancer phenotype but showing distinct levels of HIF1α were evaluated. Caki-1 and -2 are renal cancer cell lines established from the same patient; Caki-2 cells constitutively express HIF-1α while the expression in Caki-1 cells is conditional. VHL protein is a negative regulator of HIF-1α, and a VHL mutation accompanies constitutive HIF-1α expression. In FIG. 6a, cells were serially diluted to the densities indicated. Cell lysates were harvested for ELISA at 24 h after seeding. In FIG. 6b, cells were seeded at 2,500 cells/well-96 plate. Cell viability was evaluated by CellTiter Glo ATP assay at 24 h.

metastatic melanoma = test: Phase 3 trial in metastatic melanoma, stratified by baseline LDH; format: in vivo, patients; conditions: for median PFS: elesclomol arm
Text: In a Phase 3 trial in metastatic melanoma, the level of baseline lactate dehydrogenase (LDH) in patients emerged as an important prognostic factor for treatment outcomes with elesclomol. A differential response to treatment with elesclomol was shown, based on the level of baseline LDH in the plasma, an established prognostic biomarker in melanoma and a pre-specified stratification variable in the trial.

CoCl2-treated M14 cells = test: Cell viability of CoCl2-treated M14 cells with elesclomol and oxamate (FIG. 10, 11); format: cell-based; conditions: 50 nM elesclomol, 50 μM CoCl2, 25 mM oxamate, 48 h
Method: By inhibiting LDH, the conversion of pyruvate to lactate is shut down, as illustrated in the left panel of FIG. 10. Oxamate, a pyruvate analog and LDH-A inhibitor, was tested on CoCl2-treated M14 cells as illustrated in the right panel of FIG. 10. Cell viability was assessed after 48 h incubation with or without elesclomol and oxamate.
Cell viability was assessed after 48 h incubation with or without 50 nM elesclomol in the presence or absence of 50 μM CoCl2 and 25 mM oxamate.

Caki-2 cells = test: Cell viability by CellTiter Glo ATP assay at 24 h, Caki-2 cells (FIG. 6b); format: cell-based; conditions: HIF-1α-high Caki-2 cells, 2,500 cells/well
Method: as §1

[1] = system: M14 (MDA-MB-435) melanoma cells; test: Cell viability of sparse and dense M14 (MDA-MB-435) melanoma cells under normoxia or hypoxia (FIG. 5b); format: cell-based; conditions: normoxia (20%) or hypoxia (0.1%), viability at 48 h by cellular ATP
Method: In hypoxic cells, stabilized HIF-1α shunts away energy carbon flow from mitochondria (illustrated graphically in FIG. 4.). The regulatory subunit of HIF-1α is stabilized under hypoxic conditions, and thus-stabilized HIF-1α forms active HIF-1 (HIF-1α/1b heterodimer), whereupon HIF-1 induces LDH-A to convert pyruvate to lactate. The potency of the bis[thiohydrazide amide] compound elesclomol on sparse and dense melanoma cells was assayed under hypoxic and normoxic conditions. Total HIF-1α (cytosolic+nuclear, FIG. 5a) and cell viability of M14 (MDA-MB-435) melanoma cells (FIG. 5b) was evaluated at 12 h and 48 h by ELISA (R&D systems) and cellular ATP levels (CellTiter Glo-Promega), respectively, under normoxia (20%) or hypoxia (0.1%) with sparse (2 k cells/well) or dense (20 k cells/well) in 96-well plates.

769-P = test: Cell viability (CellTiter Glo ATP) with elesclomol under normoxia/hypoxia, 769-P; format: cell-based; conditions: 769-P cell line, which did not elevate LDH-A activity under hypoxic conditions
Method: FIG. 7 illustrates experimental work done with a variety of cells showing how high levels of HIF-1α and LDH-A activity correlate with the reduced sensitivity to elesclomol. FIGS. 7a and 7b show the reductive (i.e., pyruvate to lactate) LDH activity and HIF-1α level under normoxic and hypoxic conditions. The cells set forth in the Figures and in Table 1, below were seeded at 2 k cells/well in a 96-well plate and cultured under normoxic (20% O2) and hypoxic (0.1% O2) conditions to determine their LDH activity and HIF-1α level. LDH-A activity (measuring reduction of pyruvate to lactate by monitoring NADH at 340 nm) and HIF-1α were analyzed at 24 h. […] An experiment was then run to treat these same cell lines with vehicle or 50 nM elesclomol under normoxic (20% O2) and hypoxia (0.1% O2) conditions for 36 h (FIG. 7d.) Cell viability was evaluated by cellular ATP (CellTiter Glo, Promega).

Row | SMILES | HIF-1α level (HIF-1α) | reductive LDH activity (HIF-1α) | IC50 (M14 melanoma cells) [µM] | sensitivity of cells to elesclomol (Caki-1 cells) | survival endpoint (metastatic melanoma; elevated LDH population) | median PFS (metastatic melanoma; elevated LDH population, 32% of patients) [months] | PFS HR (metastatic melanoma; elevated LDH population, p=0.549) | overall survival (metastatic melanoma; normal LDH population) | safety profile (metastatic melanoma; normal LDH population) | median PFS (metastatic melanoma; normal LDH population, 68% of patients) [months] | PFS HR (metastatic melanoma; normal LDH population, p=0.027) | elesclomol activity upon co-treatment with oxamate (cell viability) (CoCl2-treated M14 cells) | sensitivity of cells to elesclomol (Caki-2 cells) | potency of elesclomol, normoxia vs hypoxia [1] | change in sensitivity to elesclomol under hypoxic conditions (769-P)
1 | [Cl-].[Cl-].[Co+2] [CoCl2] | increases | increased | – | – | – | – | – | – | – | – | – | – | – | – | –
2 | CN(NC(=O)CC(=O)NN(C)C(=S)c1ccccc1)C(=S)c1ccccc1 [elesclomol, N-malonyl-bis(N′-methyl-N′-thiobenzoylhydrazide)] | – | – | > 12.5 | sensitive | negative impact | 1.8 | 1.10 | no impact on overall survival | acceptable safety profile | 3.6 | 0.76 | remains active | resistant | increased potency | no change
